These results are taken from PubChem BioAssay (NCI).

Some test systems named below: ACHN renal; COLO 205 colon; HCT-15 colon; IGROV1 ovarian; LOX IMVI melanoma; MALME-3M melanoma; MDA-MB-435; MOLT-4 leukemia; SF-295 CNS; SR leukemia.
Test in all cases: NCI-60 cell line screen, 48 h

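1) Cells in 96-well plates. 2) Compound, 48 h, 5 concentrations. 3) Linear interpolation between surrounding doses. 4) Unreached endpoint = highest concentration. Here, GI50 denotes the concentration required for 50% inhibition of growth. At the TGI there is no net growth.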 Some results are limits rather than exact numbers.

As to `O=C1C(=O)c2c(nc3ncccn23)-c2ccccc21`, the GI50 with ACHN renal is 0.174 µM; in the test with COLO 205 colon, 2.13 µM; in the test with HCT-15 colon, 0.166 µM; with IGROV1 ovarian, 0.245 µM; with LOX IMVI melanoma it was 0.15 µM; with MALME-3M melanoma, 0.169 µM. Further, the GI50 with MDA-MB-435 was 0.114 µM; with MOLT-4 leukemia it was 0.257 µM; in the test with SF-295 CNS, 0.173 µM; in the test with SR leukemia, 0.315 µM. The TGI with ACHN renal came out at 0.373 µM; with COLO 205 colon, 4.53 µM; in the test on HCT-15 colon it was 0.358 µM; with IGROV1 ovarian, 0.566 µM; with LOX IMVI melanoma, 0.339 µM; with MALME-3M melanoma, 0.307 µM. Moreover, the TGI came to 0.254 µM with MDA-MB-435, 0.711 µM in the test on MOLT-4 leukemia and 0.316 µM in the test on SF-295 CNS.

On to `Cc1[nH]nc(C(=O)Nc2n[nH]c3ccccc23)c1[N+](=O)[O-]`, for which the GI50 was > 100 µM in the test on ACHN renal; 63.4 µM in the test with COLO 205 colon; 33.4 µM in the test with HCT-15 colon; > 100 µM with IGROV1 ovarian; > 100 µM in the test with LOX IMVI melanoma; > 100 µM with MALME-3M melanoma. The GI50 in the test with MDA-MB-435 is > 100 µM; in the test on MOLT-4 leukemia, > 62.5 µM; with SF-295 CNS, > 100 µM. The TGI with ACHN renal, with COLO 205 colon, with HCT-15 colon, in the test with IGROV1 ovarian, with LOX IMVI melanoma and in the test with MALME-3M melanoma was > 100 µM each time. Also, the TGI in the test with MDA-MB-435 is > 100 µM; in the test on MOLT-4 leukemia it was 97.7 µM; in the test on SF-295 CNS, > 100 µM; in the test with SR leukemia it was > 49.3 µM.

As to `Cc1ccc(-n2c(-c3ccc(Cl)cc3)cs/c2=N\NC(=O)COc2n[nH]c(=O)c3ccccc23)cc1`, the GI50 is > 100 µM with ACHN renal; > 100 µM in the test with COLO 205 colon; > 100 µM in the test with HCT-15 colon; > 100 µM in the test with IGROV1 ovarian; > 100 µM in the test with LOX IMVI melanoma; 31.9 µM in the test with MALME-3M melanoma. Further, the GI50 with MDA-MB-435 was > 100 µM; with MOLT-4 leukemia it was > 100 µM; with SF-295 CNS, 19.7 µM; in the test on SR leukemia, > 100 µM. Further, the TGI in the test with ACHN renal, with COLO 205 colon, in the test on HCT-15 colon, in the test with IGROV1 ovarian, in the test with LOX IMVI melanoma and in the test with MALME-3M melanoma was > 100 µM in each case. Besides, the TGI in the test with MDA-MB-435, with MOLT-4 leukemia, in the test on SF-295 CNS and in the test with SR leukemia was > 100 µM throughout.

On to `O=C(CC(=O)c1ccccc1NC1=Cc2ccccc2C(=O)C1=O)C(=O)NC1=C(Cl)C(=O)c2ccccc2C1=O`, for which the TGI in the test on ACHN renal was 10.7 µM; in the test on COLO 205 colon, 31 µM; with HCT-15 colon it was 6.03 µM; in the test with IGROV1 ovarian it was 17.6 µM; with LOX IMVI melanoma, 3.35 µM; with MALME-3M melanoma, 2.49 µM. Moreover, the TGI was found to be 3.36 µM in the test with MDA-MB-435, 18 µM with MOLT-4 leukemia, 11.7 µM in the test with SF-295 CNS and 14.1 µM in the test on SR leukemia.

As for `Nc1nc(Nc2ccc3c(c2)CCC(N2CCCC2)CC3)nn1-c1cc2c(nn1)-c1ccccc1CCC2` (stereo not drawn), the GI50 is 0.346 µM with ACHN renal; 1.56 µM in the test with COLO 205 colon; 0.839 µM in the test on HCT-15 colon; 0.455 µM with IGROV1 ovarian; 1.34 µM in the test with LOX IMVI melanoma; 1.42 µM with MALME-3M melanoma. For the same compound, the GI50 is 1.32 µM with MDA-MB-435, 0.681 µM with MOLT-4 leukemia, 1.85 µM in the test on SF-295 CNS and 0.42 µM with SR leukemia. The TGI worked out at 1.59 µM in the test on ACHN renal; 3.11 µM in the test on COLO 205 colon; 2.14 µM with HCT-15 colon; 1.81 µM with IGROV1 ovarian; 2.69 µM in the test on LOX IMVI melanoma; 3.09 µM in the test on MALME-3M melanoma. Also, the TGI in the test with MDA-MB-435 was determined as 2.74 µM; in the test on MOLT-4 leukemia, 2.86 µM; with SF-295 CNS, 3.54 µM; in the test on SR leukemia, 2.37 µM.

`C[C@@]12CCC[C@@](C)(C(=O)O)C1CC[C@@]13CC(=O)[C@@](CO)(CCC12)C3` (stereo partly drawn): the GI50 with ACHN renal, in the test with COLO 205 colon, with HCT-15 colon, with IGROV1 ovarian, in the test on LOX IMVI melanoma and with MALME-3M melanoma was > 100 µM in each case. The GI50 in the test with MDA-MB-435, in the test with MOLT-4 leukemia, in the test on SF-295 CNS and with SR leukemia was > 100 µM in each case. Further, the TGI in the test on ACHN renal, in the test on COLO 205 colon, in the test with HCT-15 colon, with IGROV1 ovarian, in the test with LOX IMVI melanoma and with MALME-3M melanoma was > 100 µM throughout. Also, the TGI with MDA-MB-435, with MOLT-4 leukemia, with SF-295 CNS and in the test with SR leukemia was > 100 µM throughout.

Regarding `NCC(=O)CCC(=O)O`, the GI50 with ACHN renal, in the test with COLO 205 colon, with HCT-15 colon, with IGROV1 ovarian, with LOX IMVI melanoma and in the test with MALME-3M melanoma was > 100 µM each time. In addition, the GI50 with MDA-MB-435, with MOLT-4 leukemia, in the test with SF-295 CNS and with SR leukemia was > 100 µM in each case. The TGI in the test with ACHN renal, in the test on COLO 205 colon, with HCT-15 colon, in the test on IGROV1 ovarian, in the test with LOX IMVI melanoma and with MALME-3M melanoma was > 100 µM each time. Besides, the TGI with MDA-MB-435, in the test with MOLT-4 leukemia, in the test on SF-295 CNS and in the test with SR leukemia was > 100 µM throughout.

As for `Oc1ccc(-c2nc3ccc4[nH]ncc4c3c3c2CCCC3)c2cccnc12`, the GI50 with ACHN renal was 0.181 µM; in the test with COLO 205 colon it was 0.89 µM; in the test with HCT-15 colon it was 0.153 µM; in the test with IGROV1 ovarian, 0.196 µM; in the test with LOX IMVI melanoma, 0.203 µM; in the test on MALME-3M melanoma it was 0.523 µM. The GI50 was 0.148 µM in the test with MDA-MB-435, 0.393 µM with MOLT-4 leukemia, 0.339 µM with SF-295 CNS and 0.12 µM with SR leukemia. Moreover, the TGI in the test on ACHN renal came out at 3.07 µM; in the test with COLO 205 colon, 2.42 µM; in the test with HCT-15 colon it was 7.3 µM; in the test with IGROV1 ovarian, 4.06 µM; with LOX IMVI melanoma, 4.01 µM; in the test with MALME-3M melanoma it was 2.61 µM. Moreover, the TGI worked out at 2.77 µM in the test with MDA-MB-435, 12.8 µM in the test on MOLT-4 leukemia, 2.68 µM with SF-295 CNS and 7.79 µM in the test with SR leukemia.
